From patent publication US20170128557A1, “Dendritic Cell Therapeutic Agent and Immunotherapeutic Agent Comprising Peptide Derived from Telomerase, and Therapeutic Methods Using the Same” (GemVax & KAEL Co., Ltd., priority 2015, published 2017)

System: T cells in the peripheral blood
Test: ELISPOT assay (IFN-γ / IL-4) on patients' peripheral blood T cells before/after dendritic cell immunotherapy
Assay type: cell-based, human
Description: As described above, dendritic cells activate CTL to attack target cells to treat a disease. Accordingly, dendritic cells activated by peptides including PEP1 were prepared, administered to each individual, and subjected to an ELISPOT assay to observe an increase in T cell responses to each peptide in each individual.
The experiments were performed on four patients with different diseases (cancers), and a dendritic cell immunotherapy method is as follows. Mononuclear cells were collected from peripheral blood extracted from each patient and cultured. Immature dendritic cells differentiated in the mononuclear cell culture were subjected to antigen activation with tumor-associated antigen peptides including PEP1. When the dendritic cells became mature, antigen activation was carried out once more with the same peptides. The activated mature dendritic cells were separated and then administered to each patient.
More specifically, dendritic cells and NK cells used in treatment were prepared by proliferating mononuclear cells obtained from 25 ml of whole blood taken from a patient every two weeks, and differentiating the proliferated mononuclear cells into dendritic cells. That is, in this example, CD14+ mononuclear cells obtained from a peripheral blood vessel of the patient were cultured with IL-4 and GM-CFS for 6 days and proliferated, and then treated with a Streptococcus agent OK-432 for maturation. In addition, in the preparation of the dendritic cells, the dendritic cells were activated by WT1, MUC1 and other antigens.
According to cancer characteristics of a patient undergoing a gene test, an antigen test and a tumor marker test, a substance having a similar function to a tumor-associated antigen (a cancer cell lysate, tumor-specific protein, or tumor-associated peptide) was added to the dendritic cells to enhance a cancer-recognizing ability of the dendritic cells, which is an activation process. For dendritic cell activation, as tumor-associated antigens that can be used in the present invention but not limited thereto, WT1, MUC-1, CA125, MAGE-A3, CEA, NY-ESO1, survinin, Her2, and the telomerase-derived peptide PEP1 were used. As an activation method but not limited to a specific example, the dendritic cells may be cultured with such a tumor-associated antigen. The activation may be performed on immature dendritic cells or mature dendritic cells. In one specific example of the present invention, mononuclear cells were collected from a patient's peripheral blood and cultured, immature dendritic cells differentiated from the mononuclear cells were treated with a peptide to activate and thus differentiated into mature dendritic cells, and then the mature dendritic cells were treated with the same peptide for activation. An amount of the antigen used in the activation may be the same as generally used in the art as follows but is not limited thereto. For example, PEP1 may be used in an amount of 1 to 1000 μg/ml along with the antigens, and 20 μg/ml of WT1, 20 μg/ml of MUC1, 20 μg/ml of CEA, 500 μg/ml of CA125, and 20 μg/ml of HER2 may be used. The dendritic cells (1×10^7) prepared as described above were intradermally injected six times every 14 days.
The following experiment was performed to examine whether dendritic cell immunotherapy leads to an increase in T cell responses to peptides activated by an antigen. A buffy coat layer was separated from the peripheral blood of a patient subjected to the dendritic cell immunotherapy using a ficoll method (centrifugation using a ficoll), and mononuclear cells were obtained therefrom. Following 3 to 4-day culture, an ELISPOT assay was carried out. The ELISPOT assay was performed according to a protocol of an ImmunoSpot kit (Celluluar Technology Limited, USA). […] As peptide stimulants (antigen peptides), Peptivator WT1, Peptivator NY-ESO1 (Miltenyi Biotec., Germany), MUC-1, MAGE-A3, Survivin and PEP1 were added to each well at an optimum concentration and cultured for 48 hours. […]

**Q.** With “EARPALLTSRLRFIPK (homo sapiens) [PEP1, telomerase-derived peptide composed of 16 amino acids, position [611-626] on telomerase]” as the sequence, how does the “Number of spots, IL-4” value (Patient 1 (stomach cancer), 7 days after six times of dendritic cell vaccine administration, negative control 17) read?
**A.** 335

**Q.** What about the “Number of spots, IFN-γ” value (Patient 1 (stomach cancer), 7 days after six times of dendritic cell vaccine administration, negative control 27) of the same sequence?
**A.** 567

**Q.** And the “Number of spots, IL-4” value (Patient 1 (stomach cancer), before dendritic cell vaccine administration, negative control 1)?
**A.** 2

**Q.** And the “Number of spots, IFN-γ” value (Patient 1 (stomach cancer), before dendritic cell vaccine administration, negative control 5)?
**A.** 3

**Q.** And the “ELISPOT spots compared with the negative control” value (Patient 1, after the treatment (dendritic cell vaccine six times))?
**A.** increased

**Q.** What about the “Number of spots, IL-4” value (Patient 2 (lung cancer), 44 days after six times of dendritic cell vaccine administration, negative control 2) of the same sequence?
**A.** 410

**Q.** And the “Number of spots, IFN-γ” value (Patient 2 (lung cancer), 44 days after six times of dendritic cell vaccine administration, negative control 153, *exact number was not obtained)?
**A.** ~332.5*

**Q.** What about the “Number of spots, IL-4” value (Patient 2 (lung cancer), before dendritic cell vaccine administration, negative control 0) of the same sequence?
**A.** 9

**Q.** What about the “Number of spots, IFN-γ” value (Patient 2 (lung cancer), before dendritic cell vaccine administration, negative control 1) of the same sequence?
**A.** 0

**Q.** And the “ELISPOT spots compared with the negative control” value (Patient 2, after the treatment (dendritic cell vaccine 6 times))?
**A.** increased

**Q.** What about the “Number of spots, IL-4” value (Patient 3 (pancreatic cancer), 11 days after six times of dendritic cell vaccine administration, negative control 2) of the same sequence?
**A.** 434

**Q.** What about the “Number of spots, IFN-γ” value (Patient 3 (pancreatic cancer), 11 days after six times of dendritic cell vaccine administration, negative control 14) of the same sequence?
**A.** 632

**Q.** What about the “Number of spots, IFN-γ” value (Patient 3 (pancreatic cancer), before dendritic cell vaccine administration, negative control 3) of the same sequence?
**A.** 1

**Q.** What about the “Number of spots, IL-4” value (Patient 3 (pancreatic cancer), before dendritic cell vaccine administration, negative control 8) of the same sequence?
**A.** 4

**Q.** What about the “ELISPOT spots compared with the negative control” value (Patient 3, after the treatment (dendritic cell vaccine 6 times)) of the same sequence?
**A.** increased

**Q.** What about the “Number of spots, IFN-γ” value (Patient 4 (breast cancer), 35 days after six times of dendritic cell vaccine administration, 2×10^5 cells/well, negative control 12) of the same sequence?
**A.** 258

**Q.** And the “Number of spots, IL-4” value (Patient 4 (breast cancer), 35 days after six times of dendritic cell vaccine administration, 2×10^5 cells/well, negative control 20)?
**A.** 353

**Q.** What about the “Number of spots, IFN-γ” value (Patient 4 (breast cancer), before dendritic cell vaccine administration, 2×10^5 cells/well, negative control 13) of the same sequence?
**A.** 22

**Q.** And the “Number of spots, IL-4” value (Patient 4 (breast cancer), before dendritic cell vaccine administration, 2×10^5 cells/well, negative control 17)?
**A.** 3

**Q.** What about the “ELISPOT spots compared with the negative control” value (Patient 4, after the treatment (dendritic cell vaccine 6 times)) of the same sequence?
**A.** increased
